Assay results from article PMC9821961, “Ring-Modified Histidine-Containing Cationic Short Peptides Exhibit Anticryptococcal Activity by Cellular Disruption” (Molecules, 2022).
Converted amounts (≈) assume the structure as drawn.

Legend:
Experiment in all cases: microbe, parasite or virus in culture
C. parapsilosis = assay type: cell-based, Candida parapsilosis; details: 48 h
From the text: (§1) Microbial strains: Microbial strains were procured from National Culture Collection of Pathogenic Fungi (NCCPF) at the Postgraduate Institute of Medical Education & Research (PGIMER), Chandigarh and Microbial Type Culture Collection and Gene bank (MTCC) at the Institute of Microbial Technology (IMTECH), Chandigarh, India. Peptides were screened against five different strains of fungi: viz. Candida albicans (NCCPF400034), Candida glabrata (MTCC 3019), Candida parapsilosis (NCCPF 440002), Candida krusei (NCCPF 440002) and Cryptococcus neoformans (NCCPF250316), and five strains of bacteria: viz. Escherichia coli (MTCC 2961), Staphylococcus aureus (MTCC 3160), Enterococcus faecalis (MTCC 439), Streptococcus pyogenes (MTCC 442) and Pseudomonas aeruginosa (MTCC 3542).
(§2) Growth media: Antifungal susceptibility testing was carried out using standard broth microdilution assays as per the Clinical and Laboratory Standards Institute (CLSI) guidelines for fungi. RPMI 1640 (Sigma), yeast extract, peptone and dextrose (YPED, Himedia) were used as the incubation broths. The cells were diluted to a cell density of 10^3 colony forming unit (CFU/mL) and incubated at 30 °C for 48 h. Furthermore, Muller Hinton (Himedia) media was utilized for bacterial strains and antibacterial activity was evaluated per CLSI guidelines for bacteria. Bacterial cells were diluted to a cell density of 10^5 CFU/mL and incubated at 37 °C for 24 h. Amphotericin B (Himedia, India) and rifampicin (Himedia, India) were used as standard drugs for the evaluation of activity against all the fungal and bacterial strains, respectively.
(§3) The stock solutions of peptides (2 mg/mL) were prepared in DMSO. Specific amounts of peptide from stock solution were added to a 96-well microtiter plate containing 100 μL of growth media and then serially diluted two-fold. A further 100 μL of growth media containing microbial cells were added to each well and incubated at 30–37 °C for 24–48 h. The optical density (OD) was measured at 600 nm using a BioStack Ready (BioTek Instruments, Winooski, VT, USA) microplate reader to analyze microbial growth inhibition, and IC50 and MIC values were calculated. To visualize the growth and inhibition pattern, a solution of 3-(4,5-dimethylthiazol-2-yl)-2,5-diphenyltetrazolium bromide (MTT) in water was added to the plate and incubated for 2–3 h. MTT reacts with the mitochondrial dehydrogenases, which are present only in a viable cell, to give blue colored formazan crystals. Therefore, a darker color indicates a high number of viable cells; however, non-viable cells appear pale or colorless.

C. neoformans = assay type: cell-based, Cryptococcus neoformans
From the text: as §1, §2, §3

C. albicans = assay type: cell-based, Candida albicans; details: 48 h
From the text: as §1, §2, §3

C. krusei = assay type: cell-based, Candida krusei; details: 48 h
From the text: as §1, §2, §3

C. glabrata = assay type: cell-based, Candida glabrata; details: 48 h
From the text: as §1, §2, §3

Structure (SMILES) | IC50 (C. parapsilosis) | MIC (C. parapsilosis) | IC50 (C. neoformans; 48 h) | MIC (C. neoformans; 48 h) | IC50 (C. albicans) | MIC (C. albicans) | IC50 (C. krusei) | MIC (C. krusei) | IC50 (C. glabrata) | MIC (C. glabrata) | MIC (C. neoformans; C. neoformans, lowest test concentration with no detectable growth) | Fold reduction of activity (C. neoformans; C. neoformans, on replacing methyl of the tert-butyl moiety with fluorine)
COC(=O)[C@H](Cc1ncn(Cc2ccccc2)c1I)NC(=O)[C@H](Cc1c[nH]c2ccccc12)NC(=O)OC(C)(C)C [9a] | >35.2 µg/mL | >64.0 µg/mL | 17.78 µg/mL (≈ 26.5 µM) | 32.34 µg/mL (≈ 48.2 µM) | >35.2 µg/mL | >64.0 µg/mL | >35.2 µg/mL | >64.0 µg/mL | >35.2 µg/mL | >64.0 µg/mL |  | 
COC(=O)[C@H](Cc1ncn(Cc2ccc(C(C)(C)C)cc2)c1I)NC(=O)[C@H](Cc1c[nH]c2ccccc12)NC(=O)OC(C)(C)C [9b] | >35.2 µg/mL | >64.0 µg/mL | >35.2 µg/mL | >64.0 µg/mL | >35.2 µg/mL | >64.0 µg/mL | >35.2 µg/mL | >64.0 µg/mL | >35.2 µg/mL | >64.0 µg/mL |  | 
COC(=O)[C@H](Cc1ncn(Cc2ccc(C(C)C)cc2)c1I)NC(=O)[C@H](Cc1c[nH]c2ccccc12)NC(=O)OC(C)(C)C [9c] | >35.2 µg/mL | >64.0 µg/mL | 20.39 µg/mL (≈ 28.6 µM) | 37.08 µg/mL (≈ 52 µM) | >35.2 µg/mL | >64.0 µg/mL | >35.2 µg/mL | >64.0 µg/mL | >35.2 µg/mL | >64.0 µg/mL |  | 
COC(=O)[C@H](Cc1ncn(Cc2cccc(C(F)(F)F)c2)c1I)NC(=O)[C@H](Cc1c[nH]c2ccccc12)NC(=O)OC(C)(C)C [9e] | >35.2 µg/mL | >64.0 µg/mL | 20.71 µg/mL (≈ 28 µM) | 37.65 µg/mL (≈ 50.9 µM) | >35.2 µg/mL | >64.0 µg/mL | >35.2 µg/mL | >64.0 µg/mL | >35.2 µg/mL | >64.0 µg/mL |  | 
COC(=O)[C@H](Cc1ncn(Cc2ccccc2C(F)(F)F)c1I)NC(=O)[C@H](Cc1c[nH]c2ccccc12)NC(=O)OC(C)(C)C [9f] | >35.2 µg/mL | >64.0 µg/mL | 30.56 µg/mL (≈ 41.3 µM) | 55.57 µg/mL (≈ 75.1 µM) | >35.2 µg/mL | >64.0 µg/mL | >35.2 µg/mL | >64.0 µg/mL | >35.2 µg/mL | >64.0 µg/mL |  | 
COC(=O)[C@H](Cc1ncn(Cc2ccc(C(F)(F)F)cc2)c1I)NC(=O)[C@H](Cc1c[nH]c2ccccc12)NC(=O)OC(C)(C)C [9g] | >35.2 µg/mL | >64.0 µg/mL | >35.2 µg/mL | >64.0 µg/mL | >35.2 µg/mL | >64.0 µg/mL | >35.2 µg/mL | >64.0 µg/mL | >35.2 µg/mL | >64.0 µg/mL |  | 
COC(=O)[C@H](Cc1ncn(Cc2ccc([N+](=O)[O-])cc2)c1I)NC(=O)[C@H](Cc1c[nH]c2ccccc12)NC(=O)OC(C)(C)C [9h] | >35.2 µg/mL | >64.0 µg/mL | >35.2 µg/mL | >64.0 µg/mL | >35.2 µg/mL | >64.0 µg/mL | >35.2 µg/mL | >64.0 µg/mL | >35.2 µg/mL | >64.0 µg/mL |  | 
COC(=O)[C@H](Cc1ncn(Cc2ccc(F)c(F)c2)c1I)NC(=O)[C@H](Cc1c[nH]c2ccccc12)NC(=O)OC(C)(C)C [9i] | >35.2 µg/mL | >64.0 µg/mL | 17.62 µg/mL (≈ 24.9 µM) | 32.05 µg/mL (≈ 45.3 µM) | >35.2 µg/mL | >64.0 µg/mL | >35.2 µg/mL | >64.0 µg/mL | >35.2 µg/mL | >64.0 µg/mL |  | 
COC(=O)[C@H](Cc1ncn(Cc2cc(F)cc(F)c2)c1I)NC(=O)[C@H](Cc1c[nH]c2ccccc12)NC(=O)OC(C)(C)C [9j] | >35.2 µg/mL | >64.0 µg/mL | 17.73 µg/mL (≈ 25.1 µM) | 32.25 µg/mL (≈ 45.6 µM) | >35.2 µg/mL | >64.0 µg/mL | >35.2 µg/mL | >64.0 µg/mL | >35.2 µg/mL | >64.0 µg/mL |  | 
COC(=O)[C@H](Cc1ncn(Cc2cccc(F)c2)c1I)NC(=O)[C@H](Cc1c[nH]c2ccccc12)NC(=O)OC(C)(C)C [9k] | >35.2 µg/mL | >64.0 µg/mL | 18.16 µg/mL (≈ 26.3 µM) | 32.02 µg/mL (≈ 46.4 µM) | >35.2 µg/mL | >64.0 µg/mL | >35.2 µg/mL | >64.0 µg/mL | >35.2 µg/mL | >64.0 µg/mL |  | 
COC(=O)[C@H](Cc1ncn(Cc2cccc(Cl)c2)c1I)NC(=O)[C@H](Cc1c[nH]c2ccccc12)NC(=O)OC(C)(C)C [9l] | >35.2 µg/mL | >64.0 µg/mL | 18.59 µg/mL (≈ 26.3 µM) | 33.80 µg/mL (≈ 47.9 µM) | >35.2 µg/mL | >64.0 µg/mL | >35.2 µg/mL | >64.0 µg/mL | >35.2 µg/mL | >64.0 µg/mL |  | 
COC(=O)[C@H](Cc1ncn(Cc2cccc(Br)c2)c1I)NC(=O)[C@H](Cc1c[nH]c2ccccc12)NC(=O)OC(C)(C)C [9m] | >35.2 µg/mL | >64.0 µg/mL | 18.63 µg/mL (≈ 24.8 µM) | 33.88 µg/mL (≈ 45.1 µM) | >35.2 µg/mL | >64.0 µg/mL | >35.2 µg/mL | >64.0 µg/mL | >35.2 µg/mL | >64.0 µg/mL |  | 
COC(=O)[C@H](Cc1ncn(Cc2cccc(I)c2)c1I)NC(=O)[C@H](Cc1c[nH]c2ccccc12)NC(=O)OC(C)(C)C [9n] | >35.2 µg/mL | >64.0 µg/mL | 23.58 µg/mL (≈ 29.6 µM) | 42.87 µg/mL (≈ 53.8 µM) | >35.2 µg/mL | >64.0 µg/mL | >35.2 µg/mL | >64.0 µg/mL | >35.2 µg/mL | >64.0 µg/mL |  | 
COC(=O)[C@H](Cc1ncn(Cc2ccccc2I)c1I)NC(=O)[C@H](Cc1c[nH]c2ccccc12)NC(=O)OC(C)(C)C [9o] | >35.2 µg/mL | >64.0 µg/mL | >35.2 µg/mL | >64.0 µg/mL | >35.2 µg/mL | >64.0 µg/mL | >35.2 µg/mL | >64.0 µg/mL | >35.2 µg/mL | >64.0 µg/mL |  | 
COC(=O)[C@H](Cc1ncn(Cc2ccccc2)c1I)NC(=O)[C@@H](N)Cc1c[nH]c2ccccc12 [10a] | >35.2 µg/mL | >64.0 µg/mL | 17.68 µg/mL (≈ 30.9 µM) | 32.15 µg/mL (≈ 56.3 µM) | >35.2 µg/mL | >64.0 µg/mL | >35.2 µg/mL | >64.0 µg/mL | >35.2 µg/mL | >64.0 µg/mL |  | 
COC(=O)[C@H](Cc1ncn(Cc2ccccc2C(F)(F)F)c1I)NC(=O)[C@@H](N)Cc1c[nH]c2ccccc12 [10f] | >35.2 µg/mL | >64.0 µg/mL | 17.70 µg/mL (≈ 27.7 µM) | 32.18 µg/mL (≈ 50.3 µM) | >35.2 µg/mL | >64.0 µg/mL | >35.2 µg/mL | >64.0 µg/mL | >35.2 µg/mL | >64.0 µg/mL |  | 
COC(=O)[C@H](Cc1ncn(Cc2ccc(C(F)(F)F)cc2)c1I)NC(=O)[C@@H](N)Cc1c[nH]c2ccccc12 [10g] | >35.2 µg/mL | >64.0 µg/mL | 13.53 µg/mL (≈ 21.2 µM) |  | >35.2 µg/mL | >64.0 µg/mL | >35.2 µg/mL | >64.0 µg/mL | >35.2 µg/mL | >64.0 µg/mL | 24.6 µg/mL (≈ 38.5 µM) | 2.6 fold
